Data on ten molecules can be found in patent publication US10231956B2, “3-(1H-pyrrolo[3,2-C]pyridin-2-YL)-1 H-pyrazolo[4,3-B]pyridines and therapeutic uses thereof” (Samumed, LLC, priority 2015, dated 2019).

Structures are written as SMILES.

As usually defined, the EC50 is the concentration giving half of the maximal effect. Low readings indicate an effect from little substance, high ones a need for much substance. As a reminder, the inhibition is the share of the control response that was lost under treatment.

In the assay the test system is Wnt activity (Sp5-Luc reporter, SW480 colon carcinoma cells). Description: Sp5-Luc reporter gene screening assay for Wnt activity in SW480 cells. The format is cell-based. Particulars: Homo sapiens; for EC50: luminescence, overnight incubation; for inhibition at 10 µM: given for EC50 >10 μM, read-out: percent inhibition at 10 μM. The text has this: The screening assay for Wnt activity is described as follows. Reporter cell lines can be generated by stably transducing cancer cell lines (e.g., colon cancer) or primary cells (e.g., IEC-6 intestinal cells) with a lentiviral construct that includes a Wnt-responsive promoter driving expression of the firefly luciferase gene.
SW480 colon carcinoma cells were transduced with a lentiviral vector expressing luciferase with a human Sp5 promoter consisting of a sequence of eight TCF/LEF binding sites. SW480 cells stably expressing the Sp5-Luc reporter gene and a hygromycin resistance gene were selected by treatment with 150 μg/mL of hygromycin for 7 days. These stably transduced SW480 cells were expanded in cell culture and used for all further screening activities. Each compound was dissolved in DMSO as a 10 mM stock and used to prepare compound source plates. Serial dilution (1:3, 10-point dose-response curves starting from 10 μM) and compound transfer was performed using the ECHO 550 (Labcyte, Sunnyvale, Calif.) into 384-well white solid bottom assay plates (Greiner Bio-One) with appropriate DMSO backfill for a final DMSO concentration of 0.1%. For Sp5-Luc reporter gene assays, the cells were plated at 4,000 cells/well in 384-well plates with medium containing 1% fetal bovine serum and incubated overnight at 37° C. and 5% CO2. Following incubation, 20 μl of BrightGlo luminescence reagent (Promega) was added to each well of the 384-well assay plates. The plates were placed on an orbital shaker for 2 min and then luminescence was quantified using the Envision (Perkin Elmer) plate reader. Readings were normalized to DMSO only treated cells, and normalized activities were utilized for EC50 calculations using the dose-response log (inhibitor) vs. response-variable slope (four parameters) nonlinear regression feature available in GraphPad Prism 5.0 (or Dotmatics). For EC50 of >10 μM, the percent inhibition at 10 μM is provided.
In general terms: Reporter assays use an easily measured gene product as a stand-in for the process of interest.

Regarding `O=C(Nc1cncc(-c2ccc3[nH]nc(-c4cc5c(-c6ccc(F)cc6)nccc5[nH]4)c3n2)c1)c1ccccc1` [Compound 39, N-(5-(3-(4-(4-Fluorophenyl)-1H-pyrrolo[3,2-c]pyridin-2-yl)-1H-pyrazolo [4,3-b]pyridin-5-yl)pyridin-3-yl)benzamide], the midpoint of the response, the EC50, lay at 0.692 µM. The same measure, in the same setting: next, `Fc1cccc(-c2nccc3[nH]c(-c4n[nH]c5ccc(-c6cncc(OCc7ccccc7)c6)nc45)cc23)c1` [Compound 518, 5-(5-(Benzyloxy)pyridin-3-yl)-3-(4-(3-fluorophenyl)-1H-pyrrolo[3,2-c]pyridin-2-yl)-1H-pyrazolo[4,3-b]pyridine]: 4.41 µM; `CC(C)CC(=O)Nc1cncc(-c2ccc3[nH]nc(-c4cc5c(N6CCN(C)CC6)nccc5[nH]4)c3n2)c1` [Compound 226, 3-Methyl-N-(5-(3-(4-(4-methylpiperazin-1-yl)-1H-pyrrolo[3,2-c]pyridin-2-yl)-1H-pyrazolo[4,3-b]pyridin-5-yl)pyridin-3-yl)butanamide]: 3.94 µM. Consider `CN1CCN(c2nccc3[nH]c(-c4n[nH]c5ccc(-c6cncc(NC(=O)CC7CCNCC7)c6)nc45)cc23)CC1` [Compound 641, N-(5-(3-(4-(4-Methylpiperazin-1l-yl)-1H-pyrrolo[3,2-c]pyridin-2-yl)-1H-pyrazolo[4,3-b]pyridin-5-yl)pyridin-3-yl)-2-(piperidin-4-yl)acetamide], for which the inhibition at 10 µM came to 2.1% and the concentration giving a half-maximal response (EC50) is more than 10 µM. `Nc1cncc(-c2ccc3[nH]nc(-c4cc5c(-c6ccncc6)nccc5[nH]4)c3n2)c1` [Compound 115, 5-(3-(4-(Pyridin-4-yl)-1H-pyrrolo[3,2-c]pyridin-2-yl)-1H-pyrazolo[4,3-b]pyridin-5-yl)pyridin-3-amine] showed an EC50 of 0.452 µM. For `c1csc(-c2nccc3[nH]c(-c4n[nH]c5ccc(-c6ccncc6)nc45)cc23)c1` [Compound 354, 5-(Pyridin-4-yl)-3-(4-(thiophen-2-yl)-1H-pyrrolo[3,2-c]pyridin-2-yl)-1H-pyrazolo[4,3-b]pyridine], the inhibition at 10 µM was determined as 33.6% and the 50% effective concentration (EC50) is more than 10 µM. Molecule `O=C(Nc1cncc(-c2ccc3[nH]nc(-c4cc5c(-c6cccc(F)c6)nccc5[nH]4)c3n2)c1)C1CCCCC1` [Compound 23, N-(5-(3-(4-(3-Fluorophenyl)-1H-pyrrolo[3,2-c]pyridin-2-yl)-1H-pyrazolo [4,3-b]pyridin-5-yl)pyridin-3-yl)cyclohexanecarboxamide] came in with a half-maximal effective concentration (EC50) of 1.28 µM. As to `CN1CCN(c2nccc3[nH]c(-c4n[nH]c5ccc(-c6cncc(NC(=O)c7ccccc7)c6)nc45)cc23)CC1` [Compound 235, N-(5-(3-(4-(4-Methylpiperazin-1l-yl)-1H-pyrrolo[3,2-c]pyridin-2-yl)-1H-pyrazolo[4,3-b]pyridin-5-yl)pyridin-3-yl)benzamide], the inhibition at 10 µM was found to be 49.1% and the EC50 is more than 10 µM. The matching figures for `Cc1ccncc1-c1ccc2[nH]nc(-c3cc4c(-c5ccc(F)cc5)nccc4[nH]3)c2n1` [Compound 33, 3-(4-(4-Fluorophenyl)-1H-pyrrolo[3,2-c]pyridin-2-yl)-5-(4-methylpyridin-3-yl)-1H-pyrazolo[4,3-b]pyridine]: 37.3% and more than 10 µM. For the molecule `Fc1ccccc1-c1nccc2[nH]c(-c3n[nH]c4ccc(-c5cncnc5)nc34)cc12` [Compound 83, 3-(4-(2-Fluorophenyl)-1H-pyrrolo[3,2-c]pyridin-2-yl)-5-(pyrimidin-5-yl)-1H-pyrazolo[4,3-b]pyridine], the inhibition at 10 µM worked out at 2.1% and the half-maximal effective concentration (EC50) was more than 10 µM.
